Common to all, as to type: in vivo
The nature of assay [1]: Suppression of food intake in mice. To be noted: Mus musculus, male ICR mice, 50 mg/kg oral, given 0.5 hour before feeding, food intake of control animals = 100%, (NS) = not statistically significant. Here is the method:
Male ICR mice, 7 weeks old, were acclimatised to six-hours-a-day feeding (CE-2 powder, Clea Japan) for 7 days and those animals showing a constant food intake were used in groups of 6 individuals. Each test compound was dissolved in a 5% aqueous solution of gum arabic and orally administered to mice at a dose level of 50 mg/kg as compound (I) at 0.5 hour before feeding on the 8th day. Control animals received a 5% solution of gum arabic only. Each figure in the table is the percent food intake with the food intake of control animals being taken as 100%.
In the table, the figures accompanied by NS in parentheses mean that the difference from control was not statistically significant. All other figures were significant at from P<0.02 to P<0.001.

The nature of assay [2]: Suppression of food intake in rats. To be noted: male Sprague-Dawley rats fasted for 24 hours, 20 mg/kg by oral gavage, food given after 0.5 hour; control = 100%; ** P<0.01, * P<0.05. Here is the method: Male 7-week-old rats of Sprague-Dawley strain were fasted for 24 hours and assigned to groups of 6 animals. A solution of .20 mg/kg of each test compound in distilled water was administered by oral gavage and after 0.5 hour, food (CE-2 powder) was given. The food intake in each group was measured at 1 hour and 2 hours thereafter and the results were compared with the food intake of control animals given distilled water only. The figures in the table denote the food intake percents, with the food intake of control animals being taken as 100%. By the term "gavage" is meant compulsory feeding.

Assay [3] is described as follows: Inventors' study of antiobesity, antidiabetic and anorectic effect of prior-art compounds. The note with it: according to the inventors' study; result in words. The text has this:
South African Patent No. 67/3108 describes the anti- depressive activity of 1-(4-chlorophenylthio)-2-aminopropane of the formula: [drawing 8] but this patent also says nothing about antiobesity or antidiabetic action. […] In contrast, the compounds of this invention exert strong and long-lasting antiobesity and antidiabetic effects because of their having the particular substituent (halogen) at the particular (para) position of the benzene ring and having the particular secondary amine-type structure.

The subject of the next assay is fatty acid synthesis. The experiment in a line: Inhibition of fatty acid synthesis (glucose-U-14C incorporation into fatty acid fractions). To be noted: Rattus norvegicus, Sprague-Dawley rats, 20 mg/kg oral, glucose-U-14C 30 minutes later, sacrificed after 60 minutes, versus distilled water control. The protocol:
Male 7-week-old Sprague-Dawley rats were acclimatised to 2-hours-a-day feeding (CE-2 powder, Clea Japan) for 10 days and assigned to groups of 5 animals. The animals were orally given 20 mg/kg of l-(4-chlorophenylthio)-2-methylaminopropane fumarate as dissolved in distilled water, and,30 minutes thereafter, glucose-U-^14C (85 pCi/3 g/kg) was orally administered. After 60 minutes, each animal was sacrificed and the radioactivities incorporated into the fatty acid fractions of the liver and the epididymal adipose tissues were determined.

Setting [4] is: 1 h, read-out: Food intake (%) 1 hour after administration.
The mark [5] stands for this setting: read-out: Food intake (%) 0.5 hour after administration.

Counter-ions that a name gives are not always drawn. Like-named read-outs stand apart in the source and are kept apart here.

Turning to `CC(CSc1ccc(Cl)cc1)NCCO` (centres unmarked) [Example 4, 1-(4-chlorophenylthio)-2-(2-hydroxyethylamino)propane fumarate], the response vs control in vivo at 50 mg/kg in assay [1] (setting [4]) was found to be 67.6%; in assay [1] (setting [5]), 65.9%.
Take `CN[C@@H](C)CSc1ccc(Cl)cc1` [Example 8, (S)-l-(4-chlorophenylthio)-2-methylaminopropane fumarate]: in assay [2], the “Food intake (%) 1 hour after administration” value is recorded as 38.8** % and the “Food intake (%) 2 hours after administration” value is on record as 56.1** %.
Regarding `CNC(C)CSc1ccccc1` (centres unmarked) [1-phenylthio-2-methyl-aminopropane, reference compound], the response vs control in vivo at 50 mg/kg in assay [1] (setting [4]) is 112%; in assay [1] (setting [5]) it was 106%.
As for `CC(N)CSc1ccc(Cl)cc1` (centres unmarked) [1-(4-chlorophenylthio)-2-aminopropane, reference compound], the response vs control in vivo at 50 mg/kg in assay [1] (setting [4]) stood at 85.5%; in assay [1] (setting [5]), 69.5%. Moreover, the anorectic effect entry in assay [3] is given as “only a weak transient anorectic effect”.
As to `CCNC(C)CSc1ccc(Cl)cc1` (centres unmarked) [Example 3, 1-(4-chlorophenylthio)-2-ethylaminopropane fumarate], the response vs control in vivo at 50 mg/kg in assay [1] (setting [4]) worked out at 69.4%; in assay [1] (setting [5]), 40.7%.
For `CNC(C)CSc1ccc(Cl)c(Cl)c1` (racemic) [Example 7, l-(3,4-dichlorophenylthio)-2-methylamino-propane] the same measures were 63.2% and 54.9%.
The like results for `CNC(C)CSc1ccc(Br)cc1` (centres unmarked) [Example 6, 1-(4-bromophenylthio)-2-methylamino-propane] were, in that order, 72.1% and 70.8%.
For `CNC(C)CSc1ccc(Cl)cc1.O=C(O)/C=C/C(=O)O` (centres unmarked) [Example 1, 1-(4-chlorophenylthio)-2-methylaminopropane fumarate], the response vs control in vivo at 50 mg/kg is 55.2% in assay [1] (setting [4]) and 43.2% in assay [1] (setting [5]). Besides, the “Food intake (%) 1 hour after administration” value in assay [2] is recorded as 43.9* %. In addition, the “Food intake (%) 2 hours after administration” value in assay [2] is on record as 61.9** %. For the same molecule, the inhibition at 20 mg/kg with fatty acid synthesis (adipose tissues, read-out: relative inhibition rate, radioactivity incorporated into the fatty acid fraction of the epididymal adipose tissues) was determined as 58.8%; with fatty acid synthesis (liver, read-out: relative inhibition rate, radioactivity incorporated into the fatty acid fraction of the liver), 46.6%.
`CNC(C)CSc1ccc(F)cc1` (centres unmarked) [Example 5, 1-(4-fluorophenylthio)-2-methylaminopropane]: the response vs control in vivo at 50 mg/kg came to 66.5% in assay [1] (setting [4]) and 57.9% in assay [1] (setting [5]).
